Reference: patent US12172983B2, “EGFR inhibitors” (Blueprint Medicines Corporation, priority 2019, dated 2024)
Where two headings read alike, the source gives them in different places.

Experiments:
EGFR (L858R T790M C797S) = biological target: T1, EGFR (L858R T790M C797S) (Homo sapiens, UniProt P00533, C797S/L858R/T790M); experiment: Biochemical EGFR inhibition assay (Caliper mobility shift), EGFR LRTMCS mutant; details: inhibitory activity against EGFR LRTMCS mutant; apparent IC50; read-out: Ext Enz LRTMCS
T1 construct: purchased SignalChem E10-122VG
Method in brief: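 Kinase reactions proceed at 25° C. to 10%–20% conversion of total peptide, are terminated with 35 mM EDTA, and the phosphopeptide is resolved from substrate by electrophoretic mobility shift. Apparent IC50 values come from plotting percent activity against log compound concentration.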

[1] = test system: phosphorylation of EGFR (Tyr1068) in NCI-H1975 cell line that harbors the EGFR L858R T790M mutations; experiment: NCI-H1975 pEGFR AlphaLISA assay; format: cell-based; details: 4-5 hours incubation, read-out: Ext pEGFR H1975
Method in brief: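 NCI-H1975 cells (EGFR L858R/T790M) seeded overnight, then treated with compound for 4-5 h at 37 °C/5% CO2. After lysis, p-EGFR (Tyr1068) quantified by AlphaLISA SureFire Ultra with acceptor then donor beads; IC50 fitted from percent inhibition versus log concentration.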

[2] = Homo sapiens, NCI-H1975, inhibition of phosphorylation of mutant EGFR in NCI-H1975 cells

T1 sequence (P00533 25-1210 T790M/C797S/L858R): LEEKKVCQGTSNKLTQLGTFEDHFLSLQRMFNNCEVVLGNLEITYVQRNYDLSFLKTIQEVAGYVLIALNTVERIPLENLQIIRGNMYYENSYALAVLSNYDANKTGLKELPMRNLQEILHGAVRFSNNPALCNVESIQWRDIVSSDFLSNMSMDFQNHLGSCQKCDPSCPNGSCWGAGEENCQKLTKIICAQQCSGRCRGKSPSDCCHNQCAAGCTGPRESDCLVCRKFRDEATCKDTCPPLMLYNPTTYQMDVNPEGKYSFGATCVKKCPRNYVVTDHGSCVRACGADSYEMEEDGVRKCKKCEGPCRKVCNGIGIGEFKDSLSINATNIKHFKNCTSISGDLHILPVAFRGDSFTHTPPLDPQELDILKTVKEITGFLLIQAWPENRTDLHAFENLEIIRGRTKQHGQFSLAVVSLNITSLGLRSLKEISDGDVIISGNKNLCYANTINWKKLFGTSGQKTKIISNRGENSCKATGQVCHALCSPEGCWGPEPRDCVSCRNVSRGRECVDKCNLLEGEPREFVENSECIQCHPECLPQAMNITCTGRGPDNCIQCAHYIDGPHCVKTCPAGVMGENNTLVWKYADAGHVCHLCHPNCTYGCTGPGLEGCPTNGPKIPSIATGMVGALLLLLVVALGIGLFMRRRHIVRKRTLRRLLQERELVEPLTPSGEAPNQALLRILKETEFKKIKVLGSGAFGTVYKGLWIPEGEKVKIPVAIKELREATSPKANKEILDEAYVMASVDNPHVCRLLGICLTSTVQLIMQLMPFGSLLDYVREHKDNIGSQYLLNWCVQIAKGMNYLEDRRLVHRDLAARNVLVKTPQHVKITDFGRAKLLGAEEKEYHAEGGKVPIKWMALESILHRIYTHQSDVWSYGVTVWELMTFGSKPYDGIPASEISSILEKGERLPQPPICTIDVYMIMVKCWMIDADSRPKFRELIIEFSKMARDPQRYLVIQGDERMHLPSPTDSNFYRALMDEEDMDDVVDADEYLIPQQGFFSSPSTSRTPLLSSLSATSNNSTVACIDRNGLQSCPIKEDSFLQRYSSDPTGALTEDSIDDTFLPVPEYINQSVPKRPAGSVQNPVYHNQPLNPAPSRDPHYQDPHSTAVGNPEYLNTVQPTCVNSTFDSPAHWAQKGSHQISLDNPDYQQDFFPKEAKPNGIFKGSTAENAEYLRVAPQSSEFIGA

SMILES	IC50 (EGFR (L858R T790M C797S))	IC50 [1, 2]	IC50 ([1]; inhibition of phosphorylation of mutant EGFR in NCI-H1975 cells)
CC(C)c1ccc(N2C[C@@H](CS(C)(=O)=O)[C@@H]2C)c2cnc(Nc3ccnc(N4C[C@@H](F)[C@@H](O)C(C)(C)C4)n3)cc12 (single isomer, unassigned) [Compound 183, (4S,5R)-5-fluoro-1-[4-({8-[(2S,3R)-3-(methanesulfonylmethyl)-2-methylazetidin-1-yl]-5-(propan-2-yl)isoquinolin-3-yl}amino)pyrimidin-2-yl]-3,3-dimethylpiperidin-4-ol or (4R,5S)-5-fluoro-1-[4-({8-[(2S,3R)-3-(methanesulfonylmethyl)-2-methylazetidin-1-yl]-5-(propan-2-yl)isoquinolin-3-yl}amino)pyrimidin-2-yl]-3,3-dimethylpiperidin-4-ol]	15.1 to 20 nM	≤ 10 nM	
CC[C@@]1(F)CN(c2nccc(Nc3cc4c(C(C)C)ccc(N5C[C@H](CS(C)(=O)=O)[C@H]5C)c4cn3)n2)CC[C@@H]1O (single isomer, unassigned) [Compound 184, (3R,4S)-3-ethyl-3-fluoro-1-[4-({8-[(2R,3S)-3-(methanesulfonylmethyl)-2-methylazetidin-1-yl]-5-(propan-2-yl)isoquinolin-3-yl}amino)pyrimidin-2-yl]piperidin-4-ol or (3S,4R)-3-ethyl-3-fluoro-1-[4-({8-[(2R,3S)-3-(methanesulfonylmethyl)-2-methylazetidin-1-yl]-5-(propan-2-yl)isoquinolin-3-yl}amino)pyrimidin-2-yl]piperidin-4-ol]	≤ 15 nM	≤ 10 nM	
CO[C@@H]1CCN(c2nccc(Nc3cc4c(C(C)C)ccc(N5C[C@H](CS(C)(=O)=O)[C@H]5C)c4cn3)n2)C[C@]1(C)F (single isomer, unassigned) [Compound 185]	20.1 to 30 nM	≤ 10 nM	
CCS(=O)(=O)C[C@H]1CN(c2ccc(C(C)C)c3cc(Nc4ccnc(N5CC[C@@](C)(O)[C@@H](F)C5)n4)ncc23)[C@@H]1C (single isomer, unassigned) [Compound 186]	≤ 15 nM	≤ 10 nM	
CCS(=O)(=O)C[C@H]1CN(c2ccc(C(C)C)c3cc(Nc4ccnc(N5CC[C@](C)(O)[C@H](F)C5)n4)ncc23)[C@@H]1C (single isomer, unassigned) [Compound 187]	30.1 to 100 nM	10.1 to 20 nM	
CC(C)c1cnc(N2CC(CS(=O)(=O)C(C)C)C2)c2cnc(Nc3ccnc(N4CC[C@@H](O)[C@@](C)(F)C4)n3)cc12 (single isomer, unassigned) [Compound 188]	≤ 15 nM	≤ 10 nM	
CCS(=O)(=O)C[C@@H]1CN(c2ncc(C(C)C)c3cc(Nc4ccnc(N5CC[C@@H](O)[C@@](C)(F)C5)n4)ncc23)[C@H]1C (single isomer, unassigned) [Compound 189]	≤ 15 nM	≤ 10 nM	
CCS(=O)(=O)C[C@H]1CN(c2ncc(C(C)C)c3cc(Nc4ccnc(N5CC[C@@](C)(O)[C@@H](F)C5)n4)ncc23)[C@@H]1C (single isomer, unassigned) [Compound 190]	≤ 15 nM	≤ 10 nM	

Next, values leading:

IC50 (EGFR (L858R T790M C797S))	IC50 [1, 2]	IC50 ([1]; inhibition of phosphorylation of mutant EGFR in NCI-H1975 cells)	SMILES
≤ 15 nM	≤ 10 nM		CCS(=O)(=O)C[C@H]1CN(c2ncc(C(C)C)c3cc(Nc4ccnc(N5CC[C@](C)(O)[C@H](F)C5)n4)ncc23)[C@@H]1C (single isomer, unassigned) [Compound 191]
≤ 15 nM	10.1 to 20 nM		CN(C)CCS(=O)(=O)CC1CN(c2cccc3cc(Nc4ccnc(N5C[C@@H](F)[C@@H](O)C(C)(C)C5)n4)ncc23)C1 (single isomer, unassigned) [Compound 192, (4S,5R)-1-(4-{[8-(3-{[2-(dimethylamino)ethanesulfonyl]methyl}azetidin-1-yl)isoquinolin-3-yl]amino}pyrimidin-2-yl)-5-fluoro-3,3-dimethylpiperidin-4-ol or (4R,5S)-1-(4-{[8-(3-{[2-(dimethylamino)ethanesulfonyl]methyl}azetidin-1-yl)isoquinolin-3-yl]amino}pyrimidin-2-yl)-5-fluoro-3,3-dimethylpiperidin-4-ol]
≤ 15 nM	≤ 10 nM		CO[C@@H]1CCN(c2nccc(Nc3cc4c(C(C)C)ccc(N5CC([C@H](CN)S(C)(=O)=O)C5)c4cn3)n2)C[C@@H]1F (single isomer, unassigned) [Compound 193, 8-{3-[(1R)-2-amino-1-methanesulfonylethyl]azetidin-1-yl}-N-{2-[(3S,4R)-3-fluoro-4-methoxypiperidin-1-yl]pyrimidin-4-yl}-5-(propan-2-yl)isoquinolin-3-amine or 8-{3-[(1S)-2-amino-1-methanesulfonylethyl]azetidin-1-yl}-N-{2-[(3S,4R)-3-fluoro-4-methoxypiperidin-1-yl]pyrimidin-4-yl}-5-(propan-2-yl)isoquinolin-3-amine]
≤ 15 nM	≤ 10 nM		CCS(=O)(=O)C[C@H]1CN(c2cnc(C(C)C)c3cc(Nc4ccnc(N5CC[C@@](C)(O)[C@@H](F)C5)n4)ncc23)[C@@H]1C (single isomer, unassigned) [Compound 194]
≤ 15 nM	≤ 10 nM		CCS(=O)(=O)C[C@H]1CN(c2cnc(C(C)C)c3cc(Nc4ccnc(N5CC[C@](C)(O)[C@H](F)C5)n4)ncc23)[C@@H]1C (single isomer, unassigned) [Compound 195]
≤ 15 nM	10.1 to 20 nM		C[C@H](CO)c1ccc(N2C[C@@H](CS(C)(=O)=O)[C@@H]2C)c2cnc(Nc3ccnc(N4CC[C@@H](O)[C@@](C)(F)C4)n3)cc12 (single isomer, unassigned) [Compound 196, (3S,4R)-3-fluoro-1-[4-({5-[(2S)-1-hydroxypropan-2-yl]-8-[(2S,3R)-3-(methanesulfonylmethyl)-2-methylazetidin-1-yl]isoquinolin-3-yl}amino)pyrimidin-2-yl]-3-methylpiperidin-4-ol or (3S,4R)-3-fluoro-1-[4-({5-[(2R)-1-hydroxypropan-2-yl]-8-[(2S,3R)-3-(methanesulfonylmethyl)-2-methylazetidin-1-yl]isoquinolin-3-yl}amino)pyrimidin-2-yl]-3-methylpiperidin-4-ol]
≤ 15 nM	30.1 to 50 nM		C[C@H](CO)c1ccc(N2C[C@H](CS(C)(=O)=O)[C@H]2C)c2cnc(Nc3ccnc(N4CC[C@](C)(O)[C@H](F)C4)n3)cc12 (single isomer, unassigned) [Compound 197, (3R,4S)-3-fluoro-1-[4-({5-[(2S)-1-hydroxypropan-2-yl]-8-[(2R,3S)-3-(methanesulfonylmethyl)-2-methylazetidin-1-yl]isoquinolin-3-yl}amino)pyrimidin-2-yl]-4-methylpiperidin-4-ol or (3R,4S)-3-fluoro-1-[4-({5-[(2R)-1-hydroxypropan-2-yl]-8-[(2R,3S)-3-(methanesulfonylmethyl)-2-methylazetidin-1-yl]isoquinolin-3-yl}amino)pyrimidin-2-yl]-4-methylpiperidin-4-ol]
≤ 15 nM	10.1 to 20 nM		C[C@H](CO)c1ccc(N2C[C@H](CS(C)(=O)=O)[C@H]2C)c2cnc(Nc3ccnc(N4CC[C@@](C)(O)[C@@H](F)C4)n3)cc12 (single isomer, unassigned) [Compound 199, (3S,4R)-3-fluoro-1-(4-(5-((S)-1-hydroxypropan-2-yl)-8-((2R,3S)-2-methyl-3-(methylsulfonylmethyl)azetidin-1-yl)isoquinolin-3-ylamino)pyrimidin-2-yl)-4-methylpiperidin-4-ol or (3S,4R)-3-fluoro-1-(4-((5-((R)-1-hydroxypropan-2-yl)-8-((2R,3S)-2-methyl-3-((methylsulfonyl)methyl)azetidin-1-yl)isoquinolin-3-yl)amino)pyrimidin-2-yl)-4-methylpiperidin-4-ol]
20.1 to 30 nM	10.1 to 20 nM		CO[C@@H]1[C@H](F)CN(c2nccc(Nc3cc4c(C(C)C)ccc(N5C[C@H](CS(C)(=O)=O)[C@H]5C)c4cn3)n2)C[C@@H]1O (single isomer, unassigned) [Compound 202, (3S,4S,5R)-5-fluoro-1-[4-({8-[(2R,3S)-3-(methanesulfonylmethyl)-2-methylazetidin-1-yl]-5-(propan-2-yl)isoquinolin-3-yl}amino)pyrimidin-2-yl]-4-methoxypiperidin-3-ol or (3R,4R,5S)-5-fluoro-1-[4-({8-[(2R,3S)-3-(methanesulfonylmethyl)-2-methylazetidin-1-yl]-5-(propan-2-yl)isoquinolin-3-yl}amino)pyrimidin-2-yl]-4-methoxypiperidin-3-ol]
15.1 to 20 nM		≤ 10 nM	CO[C@@H]1[C@H](F)CN(c2nccc(Nc3cc4c(C(C)C)ccc(N5C[C@H](CS(C)(=O)=O)[C@H]5C)c4cn3)n2)C[C@@H]1O (single isomer, unassigned) [Compound 203, (3R,4R,5S)-5-fluoro-1-[4-({8-[(2R,3S)-3-(methanesulfonylmethyl)-2-methylazetidin-1-yl]-5-(propan-2-yl)isoquinolin-3-yl}amino)pyrimidin-2-yl]-4-methoxypiperidin-3-ol or (3S,4S,5R)-5-fluoro-1-[4-({8-[(2R,3S)-3-(methanesulfonylmethyl)-2-methylazetidin-1-yl]-5-(propan-2-yl)isoquinolin-3-yl}amino)pyrimidin-2-yl]-4-methoxypiperidin-3-ol]
